# Results taken from article PMC4871512, “Drug-Based Lead Discovery: The Novel Ablative Antiretroviral Profile of Deferiprone in HIV-1-Infected Cells and in HIV-Infected Treatment-Naive Subjects of a Double-Blind, Placebo-Controlled, Randomized Exploratory Trial” (PLoS ONE, 2016).
# Assays:
# [1] = Proof-of-concept trial: safety and tolerability
# Experimental: Since we were dosing a population with previously untested tolerance for deferiprone, the exploratory trial of this orally administered drug was conducted under uninterrupted medical observation and standardized conditions, e.g. uniform diet to minimize confounding food effects, in a specialized in-patient research unit for Phase I protocols. In-unit supervision lasted for the entire one-week duration of deferiprone ingestion (first stage of protocol S1 in Fig 6), which was intentionally restricted to the oral intake of in total just 17 doses. After discharge from the research unit, outpatient follow-up occurred at 4 weeks and 8 weeks (second stage of protocol S2 in Fig 6). […] Using drug toxicity grading criteria proposed by NIH [97, 98], we defined the following tolerability profile:
# Eligible for enrollment were volunteers of both genders, between 18 and 60 years old, healthy or HIV-infected with CD4 count ≥ 300/mm^3, viral load of ≥ 10,000 copies/ml, and absence of active infectious disease; AIDS-defining condition; febrile illness; liver or kidney disease; hypersensitivity to test material; and medication requirement. The protocol involved a screening visit; a pharmacokinetic and antiretroviral study requiring admission to a specialized Phase I research unit for a week of on-drug treatment, with multiple blood draws from a peripheral vein after oral intake of the first deferiprone dose, either 33 mg/kg or 50 mg/kg, and at least three repeat blood draws (first stage of protocol); an off-drug observation period of eight weeks, which comprised at least two repeat visits (second stage of protocol); and an exit visit. Enrollment complied with the applicable standard-of-care specified in the ‘Clinical Guidelines for the Management of HIV & AIDS in Adults and Adolescents’, National Department of Health, Republic of South Africa. Primary parameters included safety and tolerability (e.g. vital signs, laboratory variables, cardiac monitoring by ECG) and antiretroviral activity (e.g. RNA copies of HIV-1). Secondary parameters included pharmacokinetic variables (e.g. peak serum concentration) in serum, drawn from a peripheral vein at fixed times (0, 0.5, 1, 1.5, 2, 3, 4, 6, 9, 12) after the ingestion of the first dose on Day 1 of the study. The concentration of the nonconjugated, chelation-competent form of deferiprone in serum was determined by UV detection at 280 nm, after separation via reversed-phase HPLC under isocratic conditions. The lower limit of deferiprone quantitation was 1.466 μM, or 0.204 μg/ml. HIV-1 RNA was measured as described and used as log10-transformed parameter in all calculations.
# 26 consecutive subjects were randomly enrolled in the IRB-approved proof-of-concept trial and gave written informed consent to be studied (Supporting Information, S2 Text); recruitment of trial subjects commenced in November 2006 and follow-up terminated in April 2008. Double-blind enrollment comprised i) 18 HIV-infected, asymptomatic and—according to the applicable standard-of-care [74]–cART-ineligible individuals, who either received placebo (N = 4 [Protocol Group 4]) or deferiprone (Ferriprox®) administered orally every 8 hours in three equal doses under medical supervision, totaling initially either 99 mg/kg/day (N = 7 [Protocol Group 1]) or subsequently 150 mg/kg/day (N = 7 [Protocol Group 3]); and ii) 8 uninfected individuals either on placebo (N = 2 [Protocol Group 5]) or daily deferiprone (N = 6; 150 mg/kg/day [Protocol Group 2]); CD4 cells were quantified before, during, and at the end of the one-week treatment period. […] Visually identical tablets of deferiprone / placebo were administered once on Days 1 and 7, and thrice on Days 2–6 of protocol.
# in vitro = type: cell-based; conditions: human
# Experimental: The antiretroviral activity of deferiprone was tested in primary cultures of PBMCs, infected in vitro with clinical isolate or mock-infected with clinical isolate-identical cell- and virus-free medium as described. Briefly, to approximate the bi-compartmental mode of HIV-1 infection in vivo, which comprises a cell-generative compartment that provides non-infected but HIV-1 susceptible cells, and an HIV-generative compartment in which they become infected, the cultures were replenished as described with freshly obtained uninfected primary cells and medium at regular intervals, assuring identical cell number in both the treated and control cultures by computerized trypan blue exclusion analysis (Vi-CELL™; Beckman Coulter, Miami, FL); deferiprone concentrations were adjusted as indicated. This model allowed for months-long monitoring of HIV-1 parameters in productively infected cultures.
# [2] = human, in vivo; cited from earlier work
compound,measurement,setting,value
"Cc1c(O)c(=O)ccn1C [deferiprone, 3-hydroxy-1,2-dimethylpyridin-4-one]",enrollees who completed the study,[1]; 99 mg group,86%
same,persons with elevations of transaminases and γ-glutamyl transpeptidase,"[1]; 99 mg group, N = 7 HIV-infected, end of the treatment week",2
same,grade of transaminase elevations,"[1]; 99 mg group, the 2 affected persons",Grade 3 and Grade 2
same,grade of γ-glutamyl transpeptidase elevations,"[1]; 99 mg group, the 2 affected persons, respectively",Grade 1 and Grade 2
same,enrollees who completed the study,"[1]; 150 mg group overall, N = 13",61%
same,persons with a rise in serum liver enzymes,"[1]; 150 mg group, HIV-uninfected",2 of 6
same,hematologic adverse event,"[1]; 150 mg group, Subject 22 (cmax 285 μM), medication discontinued on Day 3",agranulocytosis (Grade 4 absolute neutrophil count)
same,grade of γ-glutamyl transpeptidase elevation,"[1]; 150 mg group, Subject 22 and Subject 24",Grade 2
same,persons with a rise in serum liver enzymes,"[1]; 150 mg group, asymptomatic HIV-infected",4 of 7
same,grade of transaminase elevations,"[1]; 150 mg group, the four affected HIV-infected persons",three Grade 2 and one Grade 4
same,protocol completion,"[1]; 150 mg group, those with HIV infection",57%
same,"rise in serum liver enzymes, grade","[1]; HIV-uninfected persons on 150 mg/day, Subject 9 and Subject 12",Grade 1 transaminase elevation
same,spontaneous correction of the neutrophil count,[1]; Subject 22,within two weeks off-drug
same,spontaneous correction of the liver function abnormality,[1]; Subject 22 and Subject 24,within one week off-drug
same,heart rate-corrected QT interval on-drug,"[1]; Subject 317, 150 mg group, Grade 2 QTc prolongation",491 ms
same,increase of heart rate-corrected QT interval,"[1]; Subject 317, 150 mg group, baseline 441 ms, first stage, judged likely not causally linked",50 ms
same,off-drug rate-corrected QT interval,"[1]; Subject 317, several days after the end of drug intake",up to 488 ms
same,effect of dose increase on tolerability,[1]; in vivo,markedly reduced the tolerability
same,neurological adverse event,"[1]; one HIV-uninfected person, at 6 and 8 days after the end of deferiprone treatment",convulsive episodes
same,viability at 200 µM,in vitro,≥ 95%
same,viability at 200 μM,in vitro,> 95%
same,"Abdominal pain/discomfort, patients affected",[2],10.4%
same,"Alanine aminotransferase increased, patients affected",[2],7.5%
same,"Arthralgia, patients affected",[2],9.8%
same,"Headache, patients affected",[2],2.5%
same,"Nausea, patients affected",[2],12.6%
same,"Neutropenia (neutrophils < 1.5 x 10^9/L and > 0.5 x 10^9/L), patients affected",[2],6.2%
same,"Vomiting, patients affected",[2],9.8%
same,"agranulocytosis (absolute neutrophil count less than 0.5 × 10^9/L), patients affected",[2],1.7%
